The source made the active and inactive calls. The rule behind the calls is not given here.
How the values were obtained:
Assay type in all cases: functional
[1] = molecular target: D(3) dopamine receptor (Homo sapiens) (UniProt P35462); assay: Partial agonist activity at D3 receptor relative to control
[2] = molecular target: D(2) dopamine receptor (Homo sapiens) (UniProt P14416); assay: Partial agonist activity at D2 receptor relative to control
[3] = molecular target: D(3) dopamine receptor (Homo sapiens) (UniProt P35462); assay: Partial agonist activity at D3 receptor
[4] = molecular target: D(2) dopamine receptor (Homo sapiens) (UniProt P14416); assay: Partial agonist activity at D2 receptor

Chain of D(3) dopamine receptor (Homo sapiens) (P35462 whole entry): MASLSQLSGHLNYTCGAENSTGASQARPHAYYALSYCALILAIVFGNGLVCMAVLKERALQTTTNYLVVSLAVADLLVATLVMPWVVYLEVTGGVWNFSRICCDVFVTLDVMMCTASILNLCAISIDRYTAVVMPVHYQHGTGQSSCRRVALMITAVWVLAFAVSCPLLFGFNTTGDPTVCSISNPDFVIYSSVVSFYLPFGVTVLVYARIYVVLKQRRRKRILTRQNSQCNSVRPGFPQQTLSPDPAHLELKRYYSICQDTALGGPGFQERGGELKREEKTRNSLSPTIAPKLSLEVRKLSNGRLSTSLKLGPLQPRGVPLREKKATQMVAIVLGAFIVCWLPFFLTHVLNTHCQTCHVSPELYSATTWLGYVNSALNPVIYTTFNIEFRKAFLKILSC
Chain of D(2) dopamine receptor (Homo sapiens) (P14416 whole entry): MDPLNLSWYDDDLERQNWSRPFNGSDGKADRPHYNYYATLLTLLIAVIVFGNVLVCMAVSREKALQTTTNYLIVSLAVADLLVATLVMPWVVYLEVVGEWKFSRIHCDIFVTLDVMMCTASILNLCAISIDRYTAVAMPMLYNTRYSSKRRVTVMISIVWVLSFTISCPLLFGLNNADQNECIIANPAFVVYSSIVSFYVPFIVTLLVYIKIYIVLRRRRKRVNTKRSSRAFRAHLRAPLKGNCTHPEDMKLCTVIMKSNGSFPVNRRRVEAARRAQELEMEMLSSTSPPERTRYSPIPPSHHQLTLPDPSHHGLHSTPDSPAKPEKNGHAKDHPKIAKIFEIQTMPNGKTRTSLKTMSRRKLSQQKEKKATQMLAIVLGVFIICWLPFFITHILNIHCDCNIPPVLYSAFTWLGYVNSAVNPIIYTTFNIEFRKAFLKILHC

SMILES	Emax [1]	Emax [2]	Activity [3]	Activity [4]
Clc1cccc(N2CCNCC2)c1Cl	57.3%	40.4%	–	–
COc1ccccc1N1CCNCC1	–	14%	–	–
COc1ccccc1N1CCN(CCCCNC(=O)c2cc3ccccc3[nH]2)CC1	8%	8%	Active	Active
O=C(NCCCCN1CCN(c2cccc(Cl)c2Cl)CC1)c1cc2ccccc2[nH]1	–	–	Active	–
